Data reported in US8148086B2, “Methods to predict and prevent resistance to taxoid compounds” (Children's Medical Center Corporatioin, priority 2005, dated 2012).

What was measured:
[1] = tested on: A549 and A549-TR cells; experiment: MTT cytotoxicity assay, paclitaxel on cell proliferation/survival; type: cell-based, human; details: MTT 72 h after paclitaxel addition
Experimental: (§1) FIGS. 1A and 1B show graphs illustrating the effect of paclitaxel on cell proliferation. A549 and A549 TR cell lines (FIG. 1A) and MES-SA and MES-SA-DX5 cell lines (FIG. 1B) were treated with various concentrations of paclitaxel. 24 hours after 1×10^4 cells/well were seeded in 96 well plates. MTT assay for cell survival was performed 72 h after paclitaxel addition. X axis: concentration of paclitaxel, Y axis-% survival.
(§2) Cell Culture. The human non-small cell lung carcinoma cell line A549 and its Paclitaxel-resistant derivative cell lines were cultured in F-12 Ham nutrient mixture (Invitrogren, Carlsbad, Calif.) supplemented with 10% fetal bovine serum (FBS) at 37° C. in a humidified atmosphere with 5% CO2/95% air. The paclitaxel-resistant cell lines were grown under selective pressure (100 nM paclitaxel), then placed in Paclitaxel-free culture medium 5-7 days before experiments were performed. The uterine sarcoma cells (MES-SA) and the multidrug resistant derivative (MES-SA/DX5) were maintained in McCoy's 5A media (ATCC, Rockville, Md.) supplemented with 10% FBS. […]
(§3) Cytotoxicity Assays. Cell growth inhibition was determined by 3-(4,5-dimethylthiazol-2-yl)-2,5-diphenyltetrazolium (MTT) bromide assay using MTT (Sigma Chemicals, St. Louis, Mo.) reagent in 96-well plates. […] Absorbance was determined using a 96-well SpectraMax plate reader (Molecular Devices, Sunnyvale, Calif.) at 570 nm.

[2] = tested on: MES-SA and MES-SA/DX5 cells; experiment: as above; type: cell-based, human; details: MTT 72 h after paclitaxel addition
Experimental: as §1, §2, §3

In the case of `CC(=O)O[C@H]1C(=O)[C@@]2(C)[C@H]([C@H](OC(=O)c3ccccc3)[C@]3(O)C[C@H](OC(=O)[C@H](O)[C@@H](NC(=O)c4ccccc4)c4ccccc4)C(C)=C1C3(C)C)[C@]1(OC(C)=O)CO[C@@H]1C[C@@H]2O` [paclitaxel, Paclitaxel], the “difference in sensitivity to paclitaxel, resistant subline vs parental line” value [1] is reported as “greater than 100 fold” and the “difference in sensitivity to paclitaxel, resistant subline vs parental line” value [2] is reported as “greater than 100 fold”.
